According to US5300491A, “Treatment of protozoal infection” (priority 1992, dated 1994):
Bridge positions count the residues as written; N and C are the ends. Square brackets hold non-standard residues; d marks the D form. Peptide text beside a SMILES is read from it. * marks the point of attachment. Ileψ(thiazoline)Cys = CC[C@H](C)[C@H](N)C1=N[C@H](C(=O)*)CS1; dOrn = NCCC[C@@H](N)C(=O)O

What was measured:
Trichomonas vaginalis = Trichomonas vaginalis assay (MLC, aerobic and anaerobic); format: cell-based; settings: for MLCs: span over metronidazole-sensitive isolates, converted from IU/ml
Experimental: All isolates were treated with either bacitracin or zinc bacitracin.
Prior to being diluted with the medium, the bacitracins were initially solubilized in water to 250 mg/ml. The zinc salt was solubilized in acidified water (60 μl HC1/ml). Duplicate plates of each isolate were prepared. one set of plates was exposed to an aerobic environment; and, the second set was exposed to an anaerobic environment. An Oxoid HP 11 anaerobic gas chamber and BR 38 gas generating kit were used to produce the anaerobic environment.

Tritrichomonas gallinae = Tritrichomonas gallinae assay (MLC); format: cell-based; settings: isolate GH85
Experimental: A single T. gallinae isolate was collected and treated with bacitracin or zinc bacitracin in accordance with the procedure of Example IV. Duplicate plates of the isolate were prepared. one plate was exposed to an aerobic environment. The second plate was exposed to an anaerobic environment.

[1] = isolate 1031, metronidazole-sensitive, aerobic
[2] = isolate 1031, metronidazole-sensitive, anaerobic
[3] = isolate 1043, metronidazole-sensitive, aerobic
[4] = isolate 1043, metronidazole-sensitive, anaerobic
[5] = isolate 1044, metronidazole-sensitive, aerobic
[6] = isolate 1044, metronidazole-sensitive, anaerobic
[7] = isolate 1064, metronidazole-sensitive, aerobic
[8] = isolate 1064, metronidazole-sensitive, anaerobic
[9] = isolate 1065, metronidazole-sensitive, aerobic
[10] = isolate 1065, metronidazole-sensitive, anaerobic
[11] = isolate 1165, metronidazole-sensitive, aerobic
[12] = isolate 1165, metronidazole-sensitive, anaerobic
[13] = isolate 1910, metronidazole-sensitive, aerobic
[14] = isolate 1910, metronidazole-sensitive, anaerobic
[15] = isolate 6950, metronidazole-sensitive, aerobic
[16] = isolate 6950, metronidazole-sensitive, anaerobic
[17] = isolate 89532.2, metronidazole-insensitive, aerobic
[18] = isolate 89532.2, metronidazole-insensitive, anaerobic
[19] = isolate 90576, metronidazole-insensitive, aerobic
[20] = isolate 90576, metronidazole-insensitive, anaerobic
[21] = isolate CDC85, metronidazole-insensitive, aerobic
[22] = isolate CDC85, metronidazole-insensitive, anaerobic
[23] = isolate IR78, metronidazole-insensitive, aerobic
[24] = isolate IR78, metronidazole-insensitive, anaerobic
[25] = isolate PHLS289, metronidazole-insensitive, aerobic
[26] = isolate PHLS289, metronidazole-insensitive, anaerobic
[27] = isolate STH-1, metronidazole-insensitive, aerobic
[28] = isolate STH-1, metronidazole-insensitive, anaerobic
[29] = isolate UCH-1, metronidazole-sensitive, aerobic
[30] = isolate UCH-1, metronidazole-sensitive, anaerobic
[31] = isolate UCH-2, metronidazole-sensitive, aerobic
[32] = isolate UCH-2, metronidazole-sensitive, anaerobic
[33] = isolate UCH-M1, metronidazole-sensitive, aerobic
[34] = isolate UCH-M1, metronidazole-sensitive, anaerobic
[35] = isolate UOB-1, metronidazole-sensitive, aerobic
[36] = isolate UOB-1, metronidazole-sensitive, anaerobic
[37] = span depending upon culture conditions
[38] = span depending upon culture conditions, converted from IU/ml

`CC[C@H](C)[C@H](N)C1=N[C@H](C(=O)N[C@@H](CC(C)C)C(=O)N[C@H](CCC(=O)O)C(=O)N[C@H](C(=O)N[C@H]2CCCCNC(=O)[C@H](CC(N)=O)NC(=O)[C@@H](CC(=O)O)NC(=O)[C@H](Cc3cnc[nH]3)NC(=O)[C@@H](Cc3ccccc3)NC(=O)[C@H]([C@@H](C)CC)NC(=O)[C@@H](CCCN)NC2=O)[C@@H](C)CC)CS1` [Bacitracin, reference compound] ({Ileψ(thiazoline)Cys}-L[dE]IK[dOrn]I[dF]H[dD]N; lactam 4-C) showed an MLC (Trichomonas vaginalis; [1]) of 2000 IU/ml, an MLC (Trichomonas vaginalis; [2]) of 2000 IU/ml and an MLC (Trichomonas vaginalis; [3]) of 2500 IU/ml. The MLC (Trichomonas vaginalis; [4]) was 2000 IU/ml, the MLC (Trichomonas vaginalis; [5]) was 2000 IU/ml and the MLC (Trichomonas vaginalis; [6]) was 2000 IU/ml. The MLC (Trichomonas vaginalis; [7]) was 1500 IU/ml, the MLC (Trichomonas vaginalis; [8]) was 1500 IU/ml and the MLC (Trichomonas vaginalis; [9]) was 2000 IU/ml. The MLC (Trichomonas vaginalis; [10]) was 2000 IU/ml, the MLC (Trichomonas vaginalis; [11]) was 2000 IU/ml and the MLC (Trichomonas vaginalis; [12]) was 2000 IU/ml. It also gave an MLC (Trichomonas vaginalis; [13]) of 2000 IU/ml, an MLC (Trichomonas vaginalis; [14]) of 2000 IU/ml and an MLC (Trichomonas vaginalis; [15]) of 2000 IU/ml. It also gave an MLC (Trichomonas vaginalis; [16]) of 2000 IU/ml, an MLC (Trichomonas vaginalis; [17]) of 2000 IU/ml and an MLC (Trichomonas vaginalis; [18]) of 2000 IU/ml. The MLC (Trichomonas vaginalis; [19]) was 2500 IU/ml, the MLC (Trichomonas vaginalis; [20]) was 2000 IU/ml and the MLC (Trichomonas vaginalis; [21]) was 1500 IU/ml. It also gave an MLC (Trichomonas vaginalis; [22]) of 2000 IU/ml, an MLC (Trichomonas vaginalis; [23]) of 2000 IU/ml and an MLC (Trichomonas vaginalis; [24]) of 2000 IU/ml. For the same molecule, the MLC (Trichomonas vaginalis; [25]) was 2000 IU/ml, the MLC (Trichomonas vaginalis; [26]) was 2500 IU/ml and the MLC (Trichomonas vaginalis; [27]) was 2000 IU/ml. For the same molecule, the MLC (Trichomonas vaginalis; [28]) was 2000 IU/ml, the MLC (Trichomonas vaginalis; [29]) was 2000 IU/ml and the MLC (Trichomonas vaginalis; [30]) was 2000 IU/ml. It also gave an MLC (Trichomonas vaginalis; [31]) of 2500 IU/ml, an MLC (Trichomonas vaginalis; [32]) of 2500 IU/ml and an MLC (Trichomonas vaginalis; [33]) of 2000 IU/ml. It also gave an MLC (Trichomonas vaginalis; [34]) of 2000 IU/ml, an MLC (Trichomonas vaginalis; [35]) of 2000 IU/ml and an MLC (Trichomonas vaginalis; [36]) of 2000 IU/ml. For the same molecule, the MLCs (Trichomonas vaginalis) was 21.44-35.71 mg/mi, the MLC (Tritrichomonas gallinae; aerobic) was 2000 IU/ml and the MLC (Tritrichomonas gallinae; anaerobic) was 1500 IU/ml. The MLC (Tritrichomonas gallinae; [37]) was 1,500-2,000 IU/ml and the MLC (Tritrichomonas gallinae; [38]) was 21.43 to 28.57 mg/mL.
Zinc bacitracin was tested, and the MLC (Trichomonas vaginalis; [1]) was 250 IU/ml, the MLC (Trichomonas vaginalis; [2]) was 350 IU/ml and the MLC (Trichomonas vaginalis; [3]) was 350 IU/ml. The MLC (Trichomonas vaginalis; [4]) was 350 IU/ml, the MLC (Trichomonas vaginalis; [5]) was 250 IU/ml and the MLC (Trichomonas vaginalis; [6]) was 300 IU/ml. The MLC (Trichomonas vaginalis; [7]) was 250 IU/ml, the MLC (Trichomonas vaginalis; [8]) was 300 IU/ml and the MLC (Trichomonas vaginalis; [9]) was 300 IU/ml. The MLC (Trichomonas vaginalis; [10]) was 400 IU/ml, the MLC (Trichomonas vaginalis; [11]) was 350 IU/ml and the MLC (Trichomonas vaginalis; [12]) was 250 IU/ml. The MLC (Trichomonas vaginalis; [13]) was 400 IU/ml, the MLC (Trichomonas vaginalis; [14]) was 350 IU/ml and the MLC (Trichomonas vaginalis; [15]) was 350 IU/ml. It also gave an MLC (Trichomonas vaginalis; [16]) of 400 IU/ml, an MLC (Trichomonas vaginalis; [17]) of 350 IU/ml and an MLC (Trichomonas vaginalis; [18]) of 350 IU/ml. The MLC (Trichomonas vaginalis; [19]) was 250 IU/ml, the MLC (Trichomonas vaginalis; [20]) was 350 IU/ml and the MLC (Trichomonas vaginalis; [21]) was 350 IU/ml. The MLC (Trichomonas vaginalis; [22]) was 350 IU/ml, the MLC (Trichomonas vaginalis; [23]) was 300 IU/ml and the MLC (Trichomonas vaginalis; [24]) was 300 IU/ml. For the same molecule, the MLC (Trichomonas vaginalis; [25]) was 200 IU/ml, the MLC (Trichomonas vaginalis; [26]) was 250 IU/ml and the MLC (Trichomonas vaginalis; [27]) was 250 IU/ml. It also gave an MLC (Trichomonas vaginalis; [28]) of 350 IU/ml, an MLC (Trichomonas vaginalis; [29]) of 400 IU/ml and an MLC (Trichomonas vaginalis; [30]) of 400 IU/ml. It also gave an MLC (Trichomonas vaginalis; [31]) of 350 IU/ml, an MLC (Trichomonas vaginalis; [32]) of 400 IU/ml and an MLC (Trichomonas vaginalis; [33]) of 250 IU/ml. It also gave an MLC (Trichomonas vaginalis; [34]) of 250 IU/ml, an MLC (Trichomonas vaginalis; [35]) of 400 IU/ml and an MLC (Trichomonas vaginalis; [36]) of 400 IU/ml. For the same molecule, the MLCs (Trichomonas vaginalis) was 3.13 to 5.47 mg/mL, the MLC (Tritrichomonas gallinae; aerobic) was 250 IU/ml and the MLC (Tritrichomonas gallinae; anaerobic) was 300 IU/ml. The MLC (Tritrichomonas gallinae; [37]) was 250-300 IU/ml and the MLC (Tritrichomonas gallinae; [38]) was 3.91 to 4.87 mg/mL.
